The values below are quoted from earlier work in US6077934A (priority 1998, dated 2000).

In this data set the test system is Swiss Webster mice. The note with it: mouse, in vivo.

In the case of GCX1 X2 EPWC [contryphan-R], the “symptomatology after intracranial injection” value was “"stiff-tail syndrome"”.
